Assay results as given in ChEMBL document CHEMBL3808375, “Design of Novel Aminoglycoside Derivatives with Enhanced Suppression of Diseases-Causing Nonsense Mutations” (ACS Med Chem Lett, 2016).
Converted amounts (≈) assume the structure as drawn.

Tests used:
[1] = Binding affinity to decoding site rRNA of ribosome in Escherichia coli using Escherichia coli S30 circular DNA assessed as inhibition of translation incubated for 60 mins by luciferase reporter gene based coupled transcription/translation assay
Bacillus spizizenii = assay: microbe, parasite or virus in culture; format: functional; conditions: ATCC 6633
Description: Antibacterial activity against Bacillus subtilis ATCC 6633 by double microdilution assay

[2] = Binding affinity to decoding site rRNA of ribosome in TNT rabbit reticulocyte lysate using luciferase T7 control DNA plasmid assessed as inhibition of translation incubated for 60 mins by luciferase reporter gene based coupled transcription/translation assay; design: species or system Oryctolagus cuniculus
Escherichia coli = assay: microbe, parasite or virus in culture; format: functional; conditions: R477/100
Description: Antibacterial activity against Escherichia coli R477/100 by double microdilution assay

[3] = Binding affinity to decoding site rRNA of ribosome in Escherichia coli using Escherichia coli S30 circular DNA assessed as inhibition of translation incubated for 20 mins by luciferase reporter gene based coupled transcription/translation assay

| IC50 [1] | MIC (Bacillus spizizenii) | IC50 [2] | MIC (Escherichia coli) | SMILES | IC50 [3] |
| --- | --- | --- | --- | --- | --- |
| 0.7 µM | 34 µM (≈ 16.5 µg/mL) | 7.5 µM | > 273 µM | NC[C@H]1O[C@@H](O[C@H]2[C@H](O)[C@@H](N)C[C@@H](N)[C@@H]2O[C@H]2O[C@H]([C@H](O)CO)[C@@H](O)[C@H](O)[C@H]2N)[C@H](O)[C@@H]1O |  |
| 6 µM |  | 347 µM |  | C[C@@H](O)[C@H]1O[C@H](O[C@@H]2[C@@H](O)[C@H](O)[C@@H](N)C[C@H]2N)[C@H](N)[C@@H](O)[C@@H]1O |  |
| 1.2 µM | 64 µM (≈ 31.9 µg/mL) | 1.2 µM | > 257 µM | C[C@H](N)[C@H]1O[C@@H](O[C@H]2[C@H](O)[C@@H](N)C[C@@H](N)[C@@H]2O[C@H]2O[C@H]([C@H](O)CO)[C@@H](O)[C@H](O)[C@H]2N)[C@H](O)[C@@H]1O |  |
|  |  |  |  | N[C@H]1[C@@H](O[C@H]2[C@H](O)[C@@H](O)[C@H](N)C[C@@H]2N)O[C@H](CO)[C@@H](O)[C@@H]1O [PAROMAMINE] | 3.9 µM |
|  |  |  |  | N[C@H]1[C@@H](O[C@@H]2[C@@H](O)[C@H](O)[C@@H](N)C[C@H]2N)O[C@H](C(O)CO)[C@@H](O)[C@@H]1O (mixture of isomers) | 24 µM |
| 1.1 µM | 156 µM (≈ 75.3 µg/mL) | 1.5 µM | 1270 µM (≈ 611 µg/mL) | C[C@H](N)[C@H]1O[C@@H](O[C@H]2[C@H](O)[C@@H](N)C[C@@H](N)[C@@H]2O[C@H]2O[C@H]([C@@H](C)O)[C@@H](O)[C@H](O)[C@H]2N)[C@H](O)[C@@H]1O |  |
| 91.9 µM | > 375 µM | 516 µM | > 375 µM | N[C@H]1[C@@H](O[C@@H]2[C@@H](O)[C@H](O)[C@@H](N)C[C@H]2N)O[C@H]([C@@H](O)CO)[C@@H](O)[C@@H]1O |  |
| 11 µM | 311 µM (≈ 110 µg/mL) | 120 µM | > 311 µM | N[C@H]1[C@@H](O[C@@H]2[C@@H](O)[C@H](O)[C@@H](N)C[C@H]2N)O[C@H]([C@H](O)CO)[C@@H](O)[C@@H]1O |  |

| SMILES | IC50 [1] | MIC (Bacillus spizizenii) | IC50 [2] | MIC (Escherichia coli) | IC50 [3] |
| --- | --- | --- | --- | --- | --- |
| CN[C@@H]1[C@@H](O)[C@@H](O[C@H]2[C@H](O)[C@@H](O[C@H]3O[C@H](C(C)O)[C@@H](O)[C@H](O)[C@H]3N)[C@H](N)C[C@@H]2N)OC[C@]1(C)O (some centres undefined) | 0.01 µM | < 1.25 µM |  | 9 µM (≈ 4.47 µg/mL) |  |
| CN[C@@H]1[C@@H](O)[C@@H](O[C@@H]2[C@@H](O)[C@H](O[C@H]3O[C@H](CN)CC[C@H]3N)[C@@H](N)C[C@H]2N)OC[C@]1(C)O |  | < 0.75 µM | 62 µM |  |  |
